For data set [1] the following is noted: TGA; mixture of water, dicamba-DGA and water conditioning agent at field-use concentrations. The source says:
A comparison of the increase in auxin herbicide volatility in various water conditioning agents was done by preparing mixtures of water, herbicide (dicamba diglycolamine (DGA) salt in this case), and water conditioning agent. Concentration of the solutions mimics actual agricultural field-use concentrations. In this test, done using thermogravimetric analysis (TGA), a comparison was made between a control (dicamba-DGA alone) to dicamba-DGA plus a water conditioning agent.

For data set [2], the system named is amaranth. In words: Field trial, water conditioning effect with glyphosate, visual injury. Type of data set: in vivo. The following applies: for % Control 2 Weeks Post Treatment, Mean / % Control 4 Weeks Post Treatment, Mean: mean of 3 plots; for % Control 2 Weeks Post Treatment / % Control 4 Weeks Post Treatment: single plots. The method, then: (§1) A field trial was conducted to compare the efficacy of the herbicide glyphosate (diluted to less than its label use rate with distilled water or water containing 1000 ppm (calcium+magnesium)), with or without water conditioning agents of the present disclosure. In this trial, the glyphosate-containing spray was applied to flax, amaranth, sunflower and corn. The glyphosate used in this field trial was Touchdown® HT herbicide and its spray application rate was kept constant at 9.6 fl oz/a. A non-ionic surfactant (Activator 90 surfactant) was also applied with the herbicide at a constant spray application rate of 0.5% v/v. Finally, the water conditioning agents of the present disclosure, when present, were applied at spray application rates of 0.75% v/v and 1.0% v/v. Flax, amaranth, sunflower and corn, which had been plotted at various locations throughout the field, were spray treated and visually assessed on a particular day after treatment for injury on a scale of 0 to 100%, with zero representing “no” injury and 100% representing “complete” injury or death. The water conditioning agents tested during this trial included: […]

Data set [3] relates to sunflower. The description is as above. Particulars: for % Control 2 Weeks Post Treatment, Mean / % Control 4 Weeks Post Treatment, Mean: mean of 3 plots; for % Control 2 Weeks Post Treatment / % Control 4 Weeks Post Treatment: single plots. Type of data set: in vivo. As to the method:
as §1

In data set [4] the test system is flax. Described as above. The following applies: for % Control 2 Weeks Post Treatment, Mean / % Control 4 Weeks Post Treatment, Mean: mean of 3 plots; for % Control 2 Weeks Post Treatment / % Control 4 Weeks Post Treatment: single plots. Type of data set: in vivo. The method, then: as §1
The test system of data set [5] is corn. Described as above. Type of data set: in vivo. The following applies: for % Control 2 Weeks Post Treatment, Mean / % Control 4 Weeks Post Treatment, Mean: mean of 3 plots; for % Control 2 Weeks Post Treatment / % Control 4 Weeks Post Treatment: single plots. As to the method: as §1
Data set [6] is described as follows: Compatibility with glyphosate herbicide solution. Type of data set: physicochemical. Particulars: 950 g water with 1000 ppm calcium, 30 g MEA sulfate solution, 20 g ROUNDUP ULTRA MAX. As to the method:
A mixture of 950 grams water containing 1000 ppm calcium, 30 grams of the MEA sulfate solution from Example 1, and 20 grams of ROUNDUP ULTRA® MAX herbicide (The Scotts Company LLC of Marysville, Ohio) was prepared.

Setting [7] is: glyphosate in distilled water + non-ionic surfactant.
Setting [8] is: glyphosate in hard water + non-ionic surfactant, no water conditioner.
Setting [9] is: glyphosate in hard water + non-ionic surfactant + sulfate at 0.75% v/v.
[10] abbreviates: glyphosate in hard water + non-ionic surfactant + sulfate at 1.0% v/v.

Values joined by “and” are separate entries in the source; they are usually repeats but may differ in a detail not shown here. Equal values may be shown once.

The source of these data is patent US11096389B2, “Alkanolamine sulfate water conditioners” (Indorama Ventures Oxides LLC, priority 2014, dated 2021).

Take `COc1c(Cl)ccc(Cl)c1C(=O)O` [Dicamba-DGA, 3,6-dichloro-2-methoxybenzoic acid]: the “Relative Volatility” value in data set [1] is given as 0.01185.
Consider `O=C(O)CNCP(=O)(O)O` [Glyphosate, N-(phosphonomethyl) glycine, reference compound], for which the “% Control 2 Weeks Post Treatment, Mean” value in data set [2] (setting [7]) was found to be 53.3%; in data set [2] (setting [8]) it was 33.3%; in data set [3] (setting [7]), 53.3%; in data set [3] (setting [8]), 33.3%; in data set [4] (setting [7]), 53.3%; in data set [4] (setting [8]) it was 33.3%. Besides, the “% Control 2 Weeks Post Treatment, Mean” value was determined as 53.3% in data set [5] (setting [7]) and 33.3% in data set [5] (setting [8]). For the same compound, the “% Control 4 Weeks Post Treatment, Mean” value was 56.7% in data set [2] (setting [7]); 33.3% in data set [2] (setting [8]); 56.7% in data set [3] (setting [7]); 33.3% in data set [3] (setting [8]); 56.7% in data set [4] (setting [7]); 33.3% in data set [4] (setting [8]). Further, the “% Control 4 Weeks Post Treatment, Mean” value in data set [5] (setting [7]) is given as 56.7%; in data set [5] (setting [8]), 33.3%. Besides, the “% Control 2 Weeks Post Treatment” value in data set [2] (setting [7]) was 50% and 60%; in data set [2] (setting [8]), 30% and 35%; in data set [3] (setting [7]), 50% and 60%; in data set [3] (setting [8]) it was 30% and 35%; in data set [4] (setting [7]) it was 50% and 60%; in data set [4] (setting [8]) it was 30% and 35%. Further, the “% Control 2 Weeks Post Treatment” value is 50% and 60% in data set [5] (setting [7]); 30% and 35% in data set [5] (setting [8]). For the same compound, the “% Control 4 Weeks Post Treatment” value was 55% and 60% in data set [2] (setting [7]); 30% and 35% in data set [2] (setting [8]); 55% and 60% in data set [3] (setting [7]); 30% and 35% in data set [3] (setting [8]); 55% and 60% in data set [4] (setting [7]); 30% and 35% in data set [4] (setting [8]). Also, the “% Control 4 Weeks Post Treatment” value in data set [5] (setting [7]) was 55% and 60%; in data set [5] (setting [8]), 30% and 35%.
monoethanolamine sulfate [Sulfate 1]: the “% Control 2 Weeks Post Treatment, Mean” value in data set [2] (setting [9]) turned out to be 72.7%; in data set [2] (setting [10]), 81.7%; in data set [3] (setting [9]), 71%; in data set [3] (setting [10]), 85%; in data set [4] (setting [9]) it was 51.7%; in data set [4] (setting [10]), 48.3%. The “% Control 2 Weeks Post Treatment, Mean” value in data set [5] (setting [9]) worked out at 68.7%; in data set [5] (setting [10]), 77.7%. Besides, the “% Control 4 Weeks Post Treatment, Mean” value in data set [2] (setting [9]) is listed as 72.7%; in data set [2] (setting [10]) it was 71.7%; in data set [3] (setting [9]), 71%; in data set [3] (setting [10]), 80%; in data set [4] (setting [9]) it was 51.7%; in data set [4] (setting [10]), 48.3%. For the same compound, the figures for the “% Control 4 Weeks Post Treatment, Mean” value in data set [5] (setting [9]) and in data set [5] (setting [10]) were 79.3% and 86%, respectively. Also, the “% Control 2 Weeks Post Treatment” value in data set [2] (setting [9]) is 75% and 68%; in data set [2] (setting [10]) it was 80% and 85%; in data set [3] (setting [9]) it was 70% and 75% and 68%; in data set [3] (setting [10]) it was 85%; in data set [4] (setting [9]) it was 45% and 50% and 60%; in data set [4] (setting [10]), 55% and 45%. In addition, the “% Control 2 Weeks Post Treatment” value was 68% and 70% in data set [5] (setting [9]); 80% and 75% and 78% in data set [5] (setting [10]). For the same compound, the “% Control 4 Weeks Post Treatment” value in data set [2] (setting [9]) was 75% and 68%; in data set [2] (setting [10]), 70% and 75%; in data set [3] (setting [9]), 70% and 75% and 68%; in data set [3] (setting [10]) it was 80%; in data set [4] (setting [9]) it was 45% and 50% and 60%; in data set [4] (setting [10]) it was 55% and 45%. In addition, the “% Control 4 Weeks Post Treatment” value in data set [5] (setting [9]) is 80% and 78%; in data set [5] (setting [10]) it was 88% and 85%. In addition, in data set [6], the “physical and chemical compatibility with glyphosate-containing formulation” value is “clear, homogenous solution”.
